Results from US9388468B2, “Truncated CD20 protein, deltaCD20” (ETABLISSEMENT FRANCAIS DU SANG (EFS), priority 2008, dated 2016).

System: RMAS-HHD cells
Experiment: T cytotoxic response (CTL) induction by peptide vaccination, 51Cr release specific lysis
Assay type: in vivo
Procedure: The immunogenicity of the ΔCD20a peptides was evaluated by generating CTL on HLA-A2/DR1 and Knock-Out (KO) transgenic mice for H-2 class I and II.
The mice (4 per group) are immunised with pools of 2 or 3 peptides (2 injections at the base of the tail at an 8-day interval) with: 50 μg of each peptide, 100 μg of helper peptide (20 mers peptide from CMV-specific pp65), the whole co-emulsified with incomplete Freud adjuvant.
Seven days after the second immunisation, the spleens of the mice are removed and the splenocytes are re-stimulated in vitro with 4 μg/ml of each peptide separately. On the fifth day of culture, the respondent populations are tested to determine specific cytotoxicity. The cells, with conclusive cytotoxicity, are re-stimulated in vitro at one-week intervals to obtain specific CTLs.
RMAS-HHD cells are used as targets to study cytotoxicity. These target cells are filled with 10 μg/ml of the peptide under test, or a non-relevant control peptide, at 37° C. for 90 minutes and labelled with 100 μCi of 51Cr for 90 minutes, and washed three times. […] After incubation, 50 μl of supernatant is collected, transferred into specific plates (Lumaplate) and the radioactivity is measured in a γ counter. The specific lysis percentage is calculated using the formula: [(experimental 51 Cr release−spontaneous 51 Cr release)/(maximum 51 Cr release−spontaneous 51 Cr release)]×100.

Substance: peptide No. 4: ΔCD20-specific peptide overlapping the alternative splicing junction zone, restricted for HLA-A*0201; probably SEQ ID NO: 9 (RMSSLELVI)
- mice that developed T cytotoxic response against the peptide (immunisation group A, 4 mice per group, 2 injections of 50 μg of each peptide, splenocytes re-stimulated in vitro): Three out of 4
- CTLs generated by immunisation killing peptide-charged RMAS-HHD targets (targets charged with 10 μg/ml peptide, not cells charged with non-relevant peptide): generates CTLs killing RMAS-HHD targets charged with said peptide
